The text below walks through data of patent US20220324865A1 (Bayer Aktiengesellschaft, priority 2018, published 2022).

As usually defined, the IC50 is the concentration at which inhibition is half-maximal.

This assay deals with T1, human EP3 receptor (Homo sapiens, UniProt P43115).
T1 construct: expressed in transfected cells; host or cells: CHO K1 (Chinese Hamster Ovary), stably co-transfected with Galpha16 and mitochondrial clytin
T1 sequence (P43115 1-390): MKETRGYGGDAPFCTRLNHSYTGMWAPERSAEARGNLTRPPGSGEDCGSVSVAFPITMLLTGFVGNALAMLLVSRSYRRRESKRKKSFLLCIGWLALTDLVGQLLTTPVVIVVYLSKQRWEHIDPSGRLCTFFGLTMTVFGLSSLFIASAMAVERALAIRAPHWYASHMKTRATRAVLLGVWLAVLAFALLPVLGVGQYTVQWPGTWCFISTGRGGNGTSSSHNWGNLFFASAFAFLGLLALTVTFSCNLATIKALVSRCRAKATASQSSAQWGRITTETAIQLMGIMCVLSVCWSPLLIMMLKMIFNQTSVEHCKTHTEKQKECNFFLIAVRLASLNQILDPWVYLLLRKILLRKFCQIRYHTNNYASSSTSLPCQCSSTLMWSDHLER
The assay is described as follows: Cellular in vitro assay for determining EP3 receptor activity (human EP3 cell line, sulprostone-stimulated calcium luminescence). Type of assay: cell-based. Particulars: CHO cells expressing human EP3 and mitochondrial Clytin; antagonist mode, sulprostone at EC50; read-out: EP3 CHO mtCLY ANTAG IC50. The procedure, abridged:
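Antagonist activity was measured as inhibition of the luminescent calcium signal elicited by EC50 sulprostone, following 10 min compound pretreatment. The cell line was recombinant CHO K1 co-expressing human EP3, Gα16 and the photoprotein Clytin, reconstituted with coelenterazine.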
Take `Cc1ccc(-c2cn3nc(C(=O)NC(C)C4CCC4)c(C4CC4)c3c(=O)[nH]2)cc1Cl` (stereo not shown) [6-279]: the IC50 was determined as 0.49 nM.
Then `Cc1ccc(-c2cn3nc(C(=O)NC(C)(C)C4CC4)c(C4CC4)c3c(=O)[nH]2)cc1Cl` [6-280], with 1.5 nM; and `Cc1ccc(-c2cn3nc(C(=O)N[C@H](C)C(C)(C)C)c(C4CC4)c3c(=O)[nH]2)cc1Cl` [6-281], with 2.05 nM; and `CC[C@H](C)NC(=O)c1nn2cc(-c3ccc(C)c(Cl)c3)[nH]c(=O)c2c1C1CC1` [6-282], with 1.6 nM.
Then `Cc1ccc(-c2cn3nc(C(=O)N[C@H](C)C4CC4)c(C4CC4)c3c(=O)[nH]2)cc1Cl` [6-283], with 0.41 nM.
With `Cc1ccc(-c2cn3nc(C(=O)NCC(C)(C)O)c(C4CC4)c3c(=O)[nH]2)cc1Cl` [6-285], the IC50 worked out at 3.35 nM.
Then `Cc1cc(-c2cn3nc(C(=O)N[C@@H](C)C4CC4)c(C4CC4)c3c(=O)[nH]2)ccc1Cl` [6-296], with 1.6 nM; and `Cc1cc(-c2cn3nc(C(=O)NC4CC(F)(F)C4)c(C4CC4)c3c(=O)[nH]2)ccc1Cl` [6-297], with 1.15 nM.
For `Cc1cc(-c2cn3nc(C(=O)NC(C)(C)C4CC4)c(C4CC4)c3c(=O)[nH]2)ccc1Cl` [6-301] the value was 1.4 nM.
For the compound `Cc1cc(-c2cn3nc(C(=O)N[C@@H](C)C(C)C)c(C4CC4)c3c(=O)[nH]2)ccc1Cl` [6-302], the IC50 was determined as 2.95 nM.
For `COc1ccc(C2(NC(=O)c3nn4cc(-c5ccc(Cl)c(C)c5)[nH]c(=O)c4c3C3CC3)CN(C)C2)cc1` [6-303] the value was 2.9 nM; for `COC[C@H](NC(=O)c1nn2cc(-c3ccc(Cl)c(C)c3)[nH]c(=O)c2c1C1CC1)c1ccccc1` [6-304], 0.65 nM; for `Cc1cc(-c2cn3nc(C(=O)NCC(O)(C(F)(F)F)C(F)(F)F)c(C4CC4)c3c(=O)[nH]2)ccc1Cl` [6-305], 2.95 nM.
Take `Cc1cc(-c2cn3nc(C(=O)N[C@@H](c4ccc(F)cc4)[C@H](O)C(F)(F)F)c(C4CC4)c3c(=O)[nH]2)ccc1Cl` [6-315]: the IC50 was determined as 2 nM.
Then `Cc1cc(-c2cn3nc(C(=O)N[C@@H](c4ccc(F)cc4)[C@@H](O)C(F)(F)F)c(C4CC4)c3c(=O)[nH]2)ccc1Cl` [6-316], with 0.74 nM; and `Cc1cc(-c2cn3nc(C(=O)N[C@H](C)C(C)(C)C)c(C4CC4)c3c(=O)[nH]2)ccc1Cl` [6-318], with 3.2 nM.
With `CC[C@@H](COC)NC(=O)c1nn2cc(-c3ccc(Cl)c(C)c3)[nH]c(=O)c2c1C1CC1` [6-327], the 50% inhibitory concentration (IC50) stood at 0.48 nM.
As for `CC[C@H](C)NC(=O)c1nn2cc(-c3ccc(Cl)c(C)c3)[nH]c(=O)c2c1C1CC1` [6-331], the IC50 was 4.85 nM.
Take `CC[C@@H](C)NC(=O)c1nn2cc(-c3ccc(Cl)c(C)c3)[nH]c(=O)c2c1C1CC1` [6-332]: the IC50 was 2 nM.
Then `Cc1cc(-c2cn3nc(C(=O)NC4(c5ccc(F)cc5)CN(C)C4)c(C4CC4)c3c(=O)[nH]2)ccc1Cl` [6-333], with 4 nM.
Then `Cc1cc(-c2cn3nc(C(=O)N[C@H](C)C4CC4)c(C4CC4)c3c(=O)[nH]2)ccc1Cl` [6-335], with 1.8 nM; and `Cc1cc(-c2cn3nc(C(=O)N[C@H](C)C(C)C)c(C4CC4)c3c(=O)[nH]2)ccc1Cl` [6-336], with 3.45 nM.
For the compound `Cc1cc(-c2cn3nc(C(=O)N[C@H](CN4CCOCC4)c4ccc(F)cc4)c(C4CC4)c3c(=O)[nH]2)ccc1Cl` [6-337], the IC50 came out at 1.5 nM.
For `Cc1cc(-c2cn3nc(C(=O)N[C@H](CN4CCC(F)(F)C4)c4ccc(F)cc4)c(C4CC4)c3c(=O)[nH]2)ccc1Cl` [6-339] the value was 7.15 nM; for `Cc1cc(-c2cn3nc(C(=O)NC4(c5ccc(F)cc5)CN(CC(F)F)C4)c(C4CC4)c3c(=O)[nH]2)ccc1Cl` [6-340], 1.02 nM.
Then `Cc1cc(-c2cn3nc(C(=O)NC4(c5ccccc5)CCOCC4)c(C4CC4)c3c(=O)[nH]2)ccc1Cl` [6-342], with 1.07 nM.
As to `Cc1cc(-c2cn3nc(C(=O)N[C@H](CCO)c4ccc(F)cc4)c(C4CC4)c3c(=O)[nH]2)ccc1Cl` [6-343], the IC50 is 0.28 nM.
For `Cc1cc(-c2cn3nc(C(=O)NC4(c5ccc(F)cc5)CN(CC(F)(F)F)C4)c(C4CC4)c3c(=O)[nH]2)ccc1Cl` [6-344] the value was 0.99 nM; for `Cc1cc(-c2cn3nc(C(=O)NC4(c5ccc(F)cc5)CN(C5CC5)C4)c(C4CC4)c3c(=O)[nH]2)ccc1Cl` [6-345], 1.55 nM.
For `Cc1ccc(-c2cn3nc(C(=O)NC(c4ccccc4)C(O)C(F)(F)F)cc3c(=O)[nH]2)cc1C` (stereo not shown) [6-350], the IC50 was determined as 0.78 nM.
For `Cc1ccc(-c2cn3nc(C(=O)NC(C(C)C)C(O)C(F)(F)F)cc3c(=O)[nH]2)cc1C` (stereo not shown) [6-351] the value was 7 nM; for `Cc1ccc(-c2cn3nc(C(=O)N[C@@H](c4ccccc4)[C@@H](O)CO)cc3c(=O)[nH]2)cc1C` [6-353], 3.73 nM.
Regarding `Cc1ccc(-c2cn3nc(C(=O)NC(C)C(O)C(F)(F)F)cc3c(=O)[nH]2)cc1C` (stereo not shown) [6-355], the IC50 was found to be 5.8 nM.
With `COc1ccc(C2(NC(=O)c3nn4cc(-c5ccc(C)c(F)c5)[nH]c(=O)c4c3C3CC3)CN(C)C2)cc1` [6-365], the IC50 came to 3.15 nM.
Regarding `Cc1ccc(-c2cn3nc(C(=O)N[C@@H](c4ccc(F)cc4)C(F)(F)CO)c(C4CC4)c3c(=O)[nH]2)cc1F` [6-375], the IC50 is 1.07 nM.
On to `Cc1ccc(-c2cn3nc(C(=O)NCCN(CC(F)F)C4CC4)c(C4CC4)c3c(=O)[nH]2)cc1F` [6-379], for which the 50% inhibitory concentration (IC50) amounted to 1.8 nM.
For `Cc1ccc(-c2cn3nc(C(=O)N[C@@H](C)C4CC4)c(C4CC4)c3c(=O)[nH]2)cc1F` [6-380] the value was 1.3 nM.
Consider `Cc1ccc(-c2cn3nc(C(=O)NCCN(C)C4CC4)c(C4CC4)c3c(=O)[nH]2)cc1F` [6-384], for which the IC50 was determined as 3.4 nM.
`Cc1ccc(-c2cn3nc(C(=O)N[C@@H](c4ccccc4)C(C)(C)O)c(C4CC4)c3c(=O)[nH]2)cc1F` [6-385]: the IC50 worked out at 1.3 nM.
For `Cc1ccc(-c2cn3nc(C(=O)N[C@@H](CO)C(F)(F)F)c(C4CC4)c3c(=O)[nH]2)cc1F` [6-393] the value was 0.85 nM.
`COc1ccc([C@@H](NC(=O)c2nn3cc(-c4ccc(C)c(F)c4)[nH]c(=O)c3c2C2CC2)C(F)(F)CO)cn1` [6-400]: the half-inhibitory concentration (IC50) amounted to 3.65 nM.
Then `Cc1ccc(-c2cn3nc(C(=O)NCC(O)(C(F)(F)F)C(F)(F)F)c(C4CC4)c3c(=O)[nH]2)cc1F` [6-403], with 0.69 nM.
As to `Cc1ccc(-c2cn3nc(C(=O)NC(c4ccccc4)C(O)C(F)(F)F)c(C)c3c(=O)[nH]2)cc1F` (stereo not shown) [6-407], the IC50 was 1.03 nM.
Regarding `Cc1ccc(-c2cn3nc(C(=O)N[C@H](CCO)c4ccc(F)cc4)c(C)c3c(=O)[nH]2)cc1F` [6-408], the concentration for half-maximal inhibition (IC50) is 1.03 nM.
Consider `Cc1ccc(-c2cn3nc(C(=O)N[C@@H](c4ccc(F)cc4)C(F)(F)CO)c(C)c3c(=O)[nH]2)cc1F` [6-412], for which the IC50 was found to be 1.43 nM.
Take `Cc1ccc(-c2cn3nc(C(=O)N[C@@H](c4ccc(F)cc4)C(F)(F)CO)c(C)c3c(=O)[nH]2)c(F)c1F` [6-413]: the IC50 is 3.43 nM.
As to `C[C@@H](CO)NC(=O)c1nn2cc(-c3ccc(Cl)c(Cl)c3)[nH]c(=O)c2c1C1CC1` [6-414], the IC50 worked out at 5.55 nM.
Then `O=C(N[C@@H](c1ccc(F)cc1)C(F)(F)CO)c1nn2cc(-c3ccc(Cl)c(Cl)c3)[nH]c(=O)c2c1C1CC1` [6-421], with 1.49 nM.
Consider `O=C(N[C@H](CCO)c1ccc(F)cc1)c1nn2cc(-c3ccc(Cl)c(Cl)c3)[nH]c(=O)c2c1C1CC1` [6-425], for which the IC50 is 0.52 nM.
Take `COc1ccc([C@@H](C)NC(=O)c2nn3cc(-c4ccc(Cl)c(Cl)c4)[nH]c(=O)c3c2C2CC2)cn1` [6-426]: the concentration for half-maximal inhibition (IC50) was found to be 0.82 nM.
For `COc1ccc(C2(NC(=O)c3nn4cc(-c5ccc(C)c(C)c5)[nH]c(=O)c4c3C3CC3)CN(C)C2)cc1` [6-427], the IC50 came out at 5.15 nM.
With `Cc1ccc(-c2cn3nc(C(=O)NCC(O)(C(F)(F)F)C(F)(F)F)c(C4CC4)c3c(=O)[nH]2)cc1C` [6-434], the IC50 was 1.95 nM.
As to `Cc1ccc(-c2cn3nc(C(=O)N[C@H](C)C4CC4)c(C4CC4)c3c(=O)[nH]2)cc1C` [6-438], the half-inhibitory concentration (IC50) was determined as 0.55 nM.
Consider `Cc1ccc(-c2cn3nc(C(=O)N[C@@H](C)C4CC4)c(C4CC4)c3c(=O)[nH]2)cc1C` [6-439], for which the concentration for half-maximal inhibition (IC50) is 1 nM.
Consider `Cc1ccc(-c2cn3nc(C(=O)N[C@@H](c4ccc(F)cc4)C(C)(C)O)c(C4CC4)c3c(=O)[nH]2)cc1C` [6-440], for which the IC50 was determined as 1.05 nM.
For `Cc1ccc(-c2cn3nc(C(=O)NC4CCN(CC(F)F)C4)c(C4CC4)c3c(=O)[nH]2)cc1C` (stereo not shown) [6-453] the value was 1.13 nM.
For `Cc1ccc(-c2cn3nc(C(=O)NC[C@@]4(C5CC5)NC(=O)NC4=O)c(C4CC4)c3c(=O)[nH]2)cc1C` [6-456] the value was 5.95 nM; for `Cc1ccc(-c2cn3nc(C(=O)NC[C@]4(C5CC5)NC(=O)NC4=O)c(C4CC4)c3c(=O)[nH]2)cc1C` [6-457], 4.65 nM; for `Cc1ccc(-c2cn3nc(C(=O)NCCN(CC(F)F)C4CC4)c(C4CC4)c3c(=O)[nH]2)cc1C` [6-460], 1.7 nM.
Then `COc1ccc(C2(NC(=O)c3nn4cc(-c5ccc6c(c5)OCCO6)[nH]c(=O)c4c3C3CC3)CN(C)C2)cc1` [6-464], with 3.6 nM.
As to `CC(C)(O)[C@@H](NC(=O)c1nn2cc(-c3ccc4c(c3)OCCO4)[nH]c(=O)c2c1C1CC1)c1ccc(F)cc1` [6-466], the 50% inhibitory concentration (IC50) came to 5.4 nM.
